Data as given in the supplement of paper PMC4932681.
Counter-ions that a name gives are not always drawn.

Key:
[1] = system: MCF-7 Tam1; assay: drug sensitivity score (DSS) (DSS (dimensionless)); higher = more sensitive; extreme values may be limits of the assay; details: 4-OH-tamoxifen in medium 1 µM; 72 h
In short: (§1)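 CellTiter-Glo viability was the readout, taken on a PHERAstar and normalised to vehicle-only and positive controls. It was measured after breast cancer cell lines and their resistant derivatives spent 72 h at 37 °C in 384-well plates containing library drugs at five concentrations spanning a 10 000-fold range, with 1 μM of the selecting drug in the medium of resistant lines. From logistic dose–response fits in the Breeze pipeline came drug sensitivity score, relative IC50 (curve midpoint) and top-dose inhibition.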

[2] = system: BT-474 Tam2; assay: as above; details: 4-OH-tamoxifen in medium 1 µM; 72 h
In short: as §1

[3] = system: BT-474; assay: as above; details: 72 h
In short: as §1

[4] = system: ZR-75-1; assay: as above; details: 72 h
In short: as §1

[5] = system: BT-474 Tam1; assay: as above; details: 4-OH-tamoxifen in medium 1 µM; 72 h
In short: as §1

[6] = system: MCF-7; assay: as above; details: 72 h
In short: as §1

[7] = system: ZR-75-1 Tam2; assay: as above; details: 4-OH-tamoxifen in medium 1 µM; 72 h
In short: as §1

[8] = system: ZR-75-1 Tam1; assay: as above; details: 4-OH-tamoxifen in medium 1 µM; 72 h
In short: as §1

[9] = system: T-47D Tam1; assay: as above; details: 4-OH-tamoxifen in medium 1 µM; 72 h
In short: as §1

[10] = system: T-47D; assay: as above; details: 72 h
In short: as §1

[11] = system: T-47D Tam2; assay: as above; details: 4-OH-tamoxifen in medium 1 µM; 72 h
In short: as §1

[12] = system: MCF-7 Tam1; assay: relative IC50 (midpoint of fitted logistic curve, plateau may be below 50% inhibition; CellTiter-Glo viability); higher = less potent; details: 4-OH-tamoxifen in medium 1 µM; 72 h
In short: as §1

[13] = system: BT-474 Tam2; assay: as above; details: 4-OH-tamoxifen in medium 1 µM; 72 h
In short: as §1

[14] = system: BT-474; assay: as above; details: 72 h
In short: as §1

[15] = system: ZR-75-1; assay: as above; details: 72 h
In short: as §1

[16] = system: BT-474 Tam1; assay: as above; details: 4-OH-tamoxifen in medium 1 µM; 72 h
In short: as §1

[17] = system: MCF-7; assay: as above; details: 72 h
In short: as §1

[18] = system: ZR-75-1 Tam2; assay: as above; details: 4-OH-tamoxifen in medium 1 µM; 72 h
In short: as §1

[19] = system: ZR-75-1 Tam1; assay: as above; details: 4-OH-tamoxifen in medium 1 µM; 72 h
In short: as §1

[20] = system: T-47D Tam1; assay: as above; details: 4-OH-tamoxifen in medium 1 µM; 72 h
In short: as §1

[21] = system: T-47D; assay: as above; details: 72 h
In short: as §1

[22] = system: T-47D Tam2; assay: as above; details: 4-OH-tamoxifen in medium 1 µM; 72 h
In short: as §1

Row | SMILES | drug sensitivity score [1] | drug sensitivity score [2] | drug sensitivity score ([3]; 4-OH-tamoxifen in medium 0 µM) | drug sensitivity score ([3]; 4-OH-tamoxifen in medium 1 µM) | drug sensitivity score ([4]; 4-OH-tamoxifen in medium 0 µM) | drug sensitivity score ([4]; 4-OH-tamoxifen in medium 1 µM) | drug sensitivity score [5] | drug sensitivity score ([6]; 4-OH-tamoxifen in medium 0 µM) | drug sensitivity score ([6]; 4-OH-tamoxifen in medium 1 µM) | drug sensitivity score [7] | drug sensitivity score [8] | drug sensitivity score [9] | drug sensitivity score ([10]; 4-OH-tamoxifen in medium 0 µM) | drug sensitivity score ([10]; 4-OH-tamoxifen in medium 1 µM) | drug sensitivity score [11] | relative IC50 [12] [µM] | relative IC50 [13] [µM] | relative IC50 ([14]; 4-OH-tamoxifen in medium 0 µM) [µM] | relative IC50 ([14]; 4-OH-tamoxifen in medium 1 µM) [µM] | relative IC50 ([15]; 4-OH-tamoxifen in medium 0 µM) [µM] | relative IC50 ([15]; 4-OH-tamoxifen in medium 1 µM) [µM] | relative IC50 [16] [µM] | relative IC50 ([17]; 4-OH-tamoxifen in medium 0 µM) [µM] | relative IC50 ([17]; 4-OH-tamoxifen in medium 1 µM) [µM] | relative IC50 [18] [µM] | relative IC50 [19] [µM] | relative IC50 [20] [µM] | relative IC50 ([21]; 4-OH-tamoxifen in medium 0 µM) [µM] | relative IC50 ([21]; 4-OH-tamoxifen in medium 1 µM) [µM] | relative IC50 [22] [µM]
1 | O=C(O)C1(C(=O)O)CCC1.[NH2-].[NH2-].[Pt+2] [Carboplatin] | 0 | 0 | 0 | 0 | 0 | 0 | 0 | 0 | 0 | 0 | 0 | 0 | 0 | 0 | 0 | > 10 | > 10 | > 10 | > 10 | > 10 | > 10 | > 10 | > 10 | > 10 | > 10 | > 10 | > 10 | > 10 | > 10 | > 10
2 | Oc1ncc(N(CCCl)CCCl)c(O)n1 [Uracil mustard] | 0 | 0 | 0 | 0 | 0 | 0 | 0 | 0 | 0.208 | 0 | 0 | 0 | 0 | 0 | 0 | > 10 | > 10 | > 10 | > 10 | > 10 | > 10 | > 10 | > 10 | – | > 10 | > 10 | > 10 | > 10 | > 10 | > 10
3 | COc1ncc(-c2ccc3nccc(-c4ccnnc4)c3c2)cc1NS(=O)(=O)c1ccc(F)cc1F | 13.1 | 25 | 18.5 | 25.9 | 19.3 | 16.3 | 31 | 18.1 | 19.8 | 19.4 | 18.6 | 22.4 | 19.3 | 15.6 | 15.7 | 0.00912 | 0.00703 | 0.0151 | 0.00569 | 0.00756 | 0.0107 | 0.00207 | 0.00597 | 0.00841 | 0.0107 | 0.0104 | 0.00399 | 0.00587 | 0.0197 | 0.0153
4 | CC(C)(C)c1cnc(CSc2cnc(NC(=O)C3CCNCC3)s2)o1 [SNS-032] | 2.67 | 14.4 | 0.78 | 15.8 | 12.3 | 9.55 | 23.8 | 20 | 11.8 | 11.1 | 9.78 | 8.4 | 7.36 | 1.24 | 4.33 | 1.2 | 0.42 | – | 0.0837 | 0.243 | 0.315 | 0.0829 | 0.0382 | 0.134 | 0.297 | 0.308 | 0.362 | 0.451 | – | 0.6
5 | O=C1CN2Cc3c(ccc(Cl)c3Cl)N=C2N1 [Anagrelide] | 0 | 0 | 0 | 0 | 0 | 0 | 0 | 0 | 0 | 0 | 0 | 0 | 0 | 0 | 0 | > 10 | > 10 | > 10 | > 10 | > 10 | > 10 | > 10 | > 10 | > 10 | > 10 | > 10 | > 10 | > 10 | > 10 | > 10
6 | Cc1c2oc3c(C)ccc(C(=O)N[C@@H]4C(=O)N[C@H](C(C)C)C(=O)N5CCC[C@H]5C(=O)N(C)CC(=O)N(C)[C@@H](C(C)C)C(=O)O[C@@H]4C)c3nc-2c(C(=O)N[C@@H]2C(=O)N[C@H](C(C)C)C(=O)N3CCC[C@H]3C(=O)N(C)CC(=O)N(C)[C@@H](C(C)C)C(=O)O[C@@H]2C)c(N)c1=O [Dactinomycin] | 16.1 | 16.1 | 11.2 | 17.9 | 20.5 | 17.4 | 20.1 | 20.2 | 20 | 23.2 | 19.8 | 18.2 | 16.8 | 12 | 16 | 0.0241 | 0.0352 | 0.0227 | 0.0275 | 0.0045 | 0.00903 | 0.0189 | 0.0114 | 0.0135 | 0.00833 | 0.00956 | 0.00817 | 0.00779 | 0.00851 | 0.00876
7 | Cn1c(CCCC(=O)O)nc2cc(N(CCCl)CCCl)ccc21 [Bendamustine (hydrochloride hydrate)] | 0 | 0 | 0 | 0 | 0 | 0 | 0 | 0.159 | 0 | 0 | 0 | 0 | 0 | 0 | 0 | > 10 | > 10 | > 10 | > 10 | > 10 | > 10 | > 10 | – | > 10 | > 10 | > 10 | > 10 | > 10 | > 10 | > 10
8 | C[C@H]1C[C@@H]2[C@H]([C@@H](O)C[C@@]3(C)[C@H]2CC[C@]3(O)C(=O)CO)[C@@]2(C)C=CC(=O)C=C12 [Methylprednisolone] | 0 | 0 | 0 | 0 | 0 | 0 | 0 | 0 | 0.455 | 0 | 0 | 0 | 0 | 0 | 0 | > 10 | > 10 | > 10 | > 10 | > 10 | > 10 | > 10 | > 10 | – | > 10 | > 10 | > 10 | > 10 | > 10 | > 10
9 | c1ccc([C@H]2CN3CCSC3=N2)cc1 [Levamisole, (Tetramisole hydrochloride)] | 0 | 0 | 0 | 0 | 0 | 0 | 0 | 0 | 0 | 0 | 0 | 0 | 0 | 0 | 0 | > 10 | > 10 | > 10 | > 10 | > 10 | > 10 | > 10 | > 10 | > 10 | > 10 | > 10 | > 10 | > 10 | > 10 | > 10
10 | CNCc1ccc(-c2[nH]c3cc(F)cc4c3c2CCNC4=O)cc1 | 0 | 0 | 0 | 0 | 0 | 0 | 0 | 0 | 0 | 0 | 0 | 0 | 0 | 0 | 0 | > 10 | > 10 | > 10 | > 10 | > 10 | > 10 | > 10 | > 10 | > 10 | > 10 | > 10 | > 10 | > 10 | > 10 | > 10
11 | C=CCNC1=C2C[C@@H](C)C[C@H](OC)[C@H](O)[C@@H](C)/C=C(\C)[C@H](OC(N)=O)[C@@H](OC)/C=C\C=C(/C)C(=O)NC(=CC1=O)C2=O [Tanespimycin  (17-AAG)] | 4.15 | 23.1 | 17.1 | 24 | 8.45 | 9.57 | 24 | 19.2 | 13.9 | 11.6 | 7.79 | 3.79 | 5.17 | 5.11 | 3.1 | 0.444 | 0.0386 | 0.0422 | 0.0424 | 0.0745 | 0.141 | 0.0274 | 0.0615 | 0.0656 | 0.118 | 0.284 | 1.64 | 1.55 | 0.939 | 2.18
12 | C[C@]12CC[C@H](O)CC1=CC[C@@H]1[C@@H]2CC[C@]2(C)C(c3cccnc3)=CC[C@@H]12 [Abiraterone (CB-7598)] | 0 | 0 | 0 | 0 | 0 | 0 | 0 | 0 | 0 | 0 | 0 | 0 | 0 | 0 | 0 | > 5 | > 5 | > 5 | > 5 | > 5 | > 5 | > 5 | > 5 | > 5 | > 5 | > 5 | > 5 | > 5 | > 5 | > 5
13 | Clc1ccc(C(c2ccccc2Cl)C(Cl)Cl)cc1 (centres undefined) [Mitotane] | 0 | 0 | 0 | 0 | 0 | 0 | 0 | 0 | 0 | 0 | 0 | 0 | 0 | 0 | 0 | > 10 | > 10 | > 10 | > 10 | > 10 | > 10 | > 10 | > 10 | > 10 | > 10 | > 10 | > 10 | > 10 | > 10 | > 10
14 | COC(=O)C[C@](O)(CCCC(C)(C)O)C(=O)O[C@@H]1C(OC)=C[C@]23CCCN2CCc2cc4c(cc2[C@H]13)OCO4 [Omacetaxine (Homoharringtonine)] | 16.2 | 6.34 | 6.72 | 6.25 | 19 | 15.2 | 4.82 | 25.1 | 26.1 | 17.8 | 13.8 | 16.4 | 17.4 | 11 | 10.7 | 0.0822 | 1.78 | – | 1.89 | 0.0372 | 0.0465 | 2.99 | 0.029 | 0.0167 | 0.0922 | 0.0844 | 0.0937 | 0.138 | 0.172 | 0.419
